According to patent US10695337B2, “Piperidin-4-yl azetidine derivatives as JAK1 inhibitors” (Incyte Corporation, priority 2010, dated 2020):

Molecular target: human JAK1 (a.a. 837-1142)
Assay: In vitro JAK kinase assay (HTRF, phosphorylation of a biotinylated peptide), JAK1
Format: biochemical
Conditions: measured at 1 mM ATP; JAK2 IC50 / JAK1 IC50
Protocol: Compounds herein were tested for inhibitory activity of JAK targets according to the following in vitro assay described in Park et al., Analytical Biochemistry 1999, 269, 94-104. The catalytic domains of human JAK1 (a.a. 837-1142), Jak2 (a.a. 828-1132) and Jak3 (a.a. 781-1124) with an N-terminal His tag were expressed using baculovirus in insect cells and purified. The catalytic activity of JAK1, JAK2 or JAK3 was assayed by measuring the phosphorylation of a biotinylated peptide. The phosphorylated peptide was detected by homogenous time resolved fluorescence (HTRF). […] Reactions were carried out at room temperature for 1 hr and then stopped with 20 μL 45 mM EDTA, 300 nM SA-APC, 6 nM Eu-Py20 in assay buffer (Perkin Elmer, Boston, Mass.). Binding to the Europium labeled antibody took place for 40 minutes and HTRF signal was measured on a Fusion plate reader (Perkin Elmer, Boston, Mass.).

N#CCC1(n2cc(-c3ncnc4[nH]ccc34)cn2)CN(C2CCN(C(=O)C3CCCCC3)CC2)C1 [Example 8, {1-[1-(cyclohexylcarbonyl)piperidin-4-yl]-3-[4-(7H-pyrrolo[2,3-d]pyrimidin-4-yl)-1H-pyrazol-1-yl]azetidin-3-yl}acetonitrile]
IC50 Ratio JAK2/JAK1: 11.0

N#CCC1(n2cc(-c3ncnc4[nH]ccc34)cn2)CN(C2CCN(C(=O)c3cccc(F)c3F)CC2)C1 [Example 41, {1-[1-(2,3-difluorobenzoyl)piperidin-4-yl]-3-[4-(7H-pyrrolo[2,3-d]pyrimidin-4-yl)-1H-pyrazol-1-yl]azetidin-3-yl}acetonitrile]
IC50 Ratio JAK2/JAK1: 4.9

Cc1ccc(NC(=O)N2CCC(N3CC(CC#N)(n4cc(-c5ncnc6[nH]ccc56)cn4)C3)CC2)c(C)n1 [Example 189, 4-{3-(cyanomethyl)-3-[4-(7H-pyrrolo[2,3-d]pyrimidin-4-yl)-1H-pyrazol-1-yl]azetidin-1-yl}-N-(2,6-dimethylpyridin-3-yl)piperidine-1-carboxamide]
IC50 Ratio JAK2/JAK1: 3.5

N#CCC1(n2cc(-c3ncnc4[nH]ccc34)cn2)CN(C2CCN(C(=O)c3cccc(C(F)(F)F)c3)CC2)C1 [Example 22, (3-[4-(7H-pyrrolo[2,3-d]pyrimidin-4-yl)-1H-pyrazol-1-yl]-1-{1-[3-(trifluoromethyl)benzoyl]piperidin-4-yl}azetidin-3-yl)acetonitrile]
IC50 Ratio JAK2/JAK1: 3.2

N#CCC1(n2cc(-c3ncnc4[nH]ccc34)cn2)CN(C2CCN(C(=O)c3c(F)c(F)cc(F)c3F)CC2)C1 [Example 56, {3-[4-(7H-pyrrolo[2,3-d]pyrimidin-4-yl)-1H-pyrazol-1-yl]-1-[1-(2,3,5,6-tetrafluorobenzoyl)piperidin-4-yl]azetidin-3-yl}acetonitrile]
IC50 Ratio JAK2/JAK1: 8.8

N#CCC1(n2cc(-c3ncnc4[nH]ccc34)cn2)CN(C2CCN(C(=O)c3cc4c(C(F)(F)F)cccc4s3)CC2)C1 [Example 93, [3-[4-(7H-pyrrolo[2,3-d]pyrimidin-4-yl)-1H-pyrazol-1-yl]-1-(1-{[4-(trifluoromethyl)-1-benzothien-2-yl]carbonyl}piperidin-4-yl)azetidin-3-yl]acetonitrile]
IC50 Ratio JAK2/JAK1: 1.5

N#CCC1(n2ccc(-c3ncnc4[nH]ccc34)c2)CN(C2CCN(C(=O)c3cc(C(F)(F)F)ccc3F)CC2)C1 [Example 273, {1-{1-[2-fluoro-5-(trifluoromethyl)benzoyl]piperidin-4-yl}-3-[3-(7H-pyrrolo[2,3-d]pyrimidin-4-yl)-1H-pyrrol-1-yl]azetidin-3-yl}acetonitrile]
IC50 Ratio JAK2/JAK1: 4.4

N#CCC1(n2cc(-c3ncnc4[nH]ccc34)cn2)CN(C2CCN(Cc3cccc(Oc4ccccc4)c3)CC2)C1 [Example 233, {1-[1-(3-phenoxybenzyl)piperidin-4-yl]-3-[4-(7H-pyrrolo[2,3-d]pyrimidin-4-yl)-1H-pyrazol-1-yl]azetidin-3-yl}acetonitrile]
IC50 Ratio JAK2/JAK1: 2.2

COc1ncccc1NC(=O)N1CCC(N2CC(CC#N)(n3cc(-c4ccnc5[nH]ccc45)cn3)C2)CC1 [Example 306, 4-{3-(cyanomethyl)-3-[4-(1H-pyrrolo[2,3-b]pyridin-4-yl)-1H-pyrazol-1-yl]azetidin-1-yl}-N-(2-methoxypyridin-3-yl)piperidine-1-carboxamide]
IC50 Ratio JAK2/JAK1: 3.5

COc1ccc(F)c(C(=O)N2CCC(N3CC(CC#N)(n4cc(-c5ncnc6[nH]ccc56)cn4)C3)CC2)c1 [Example 27, {1-[1-(2-fluoro-5-methoxybenzoyl)piperidin-4-yl]-3-[4-(7H-pyrrolo[2,3-d]pyrimidin-4-yl)-1H-pyrazol-1-yl]azetidin-3-yl}acetonitrile]
IC50 Ratio JAK2/JAK1: 5.1

N#CCC1(n2cc(-c3ncnc4[nH]ccc34)cn2)CN(C2CCN(C(=O)c3ccc(F)c(O)c3)CC2)C1 [Example 58, {1-[1-(4-fluoro-3-hydroxybenzoyl)piperidin-4-yl]-3-[4-(7H-pyrrolo[2,3-d]pyrimidin-4-yl)-1H-pyrazol-1-yl]azetidin-3-yl} acetonitrile]
IC50 Ratio JAK2/JAK1: 5.0

N#CCC1(n2cc(-c3ncnc4[nH]ccc34)cn2)CN(C2CCN(C(=O)Nc3ncccc3F)CC2)C1 [Example 202, 4-{3-(cyanomethyl)-3-[4-(7H-pyrrolo[2,3-d]pyrimidin-4-yl)-1H-pyrazol-1-yl]azetidin-1-yl}-N-(3-fluoropyridin-2-yl)piperidine-1-carboxamide]
IC50 Ratio JAK2/JAK1: 6.4

N#CCC1(n2cc(-c3c(F)cnc4[nH]ccc34)cn2)CN(C2CCN(C(=O)c3ccc(O)cc3F)CC2)C1 [Example 323, {1-[1-(2-fluoro-4-hydroxybenzoyl)piperidin-4-yl]-3-[4-(5-fluoro-1H-pyrrolo[2,3-b]pyridin-4-yl)-1H-pyrazol-1-yl]azetidin-3-yl}acetonitrile]
IC50 Ratio JAK2/JAK1: 5.0

N#CCC1(n2ccc(-c3ncnc4[nH]ccc34)c2)CN(C2CCN(C(=O)c3cnc(C(F)(F)F)cn3)CC2)C1 [Example 347, [3-[3-(7H-Pyrrolo[2,3-d]pyrimidin-4-yl)-1H-pyrrol-1-yl]-1-(1-{[5-(trifluoromethyl)pyrazin-2-yl]carbonyl}piperidin-4-yl)azetidin-3-yl]acetonitrile]
IC50 Ratio JAK2/JAK1: 2.7

N#CCC1(n2cc(-c3ncnc4[nH]ccc34)cn2)CN(C2CCN(C(=O)Nc3ccc(Cl)cc3)CC2)C1 [Example 184, N-(4-chlorophenyl)-4-{3-(cyanomethyl)-3-[4-(7H-pyrrolo[2,3-d]pyrimidin-4-yl)-1H-pyrazol-1-yl]azetidin-1-yl}piperidine-1-carboxamide]
IC50 Ratio JAK2/JAK1: 3.9

Cc1nc(C(F)(F)F)ccc1NC(=O)N1CCC(N2CC(CC#N)(n3cc(-c4ncnc5[nH]ccc45)cn3)C2)CC1 [Example 205, 4-{3-(cyanomethyl)-3-[4-(7H-pyrrolo[2,3-d]pyrimidin-4-yl)-1H-pyrazol-1-yl]azetidin-1-yl}-N-[2-methyl-6-(trifluoromethyl)pyridin-3-yl]piperidine-1-carboxamide]
IC50 Ratio JAK2/JAK1: 4.4

N#CCC1(n2cc(-c3ncnc4[nH]ccc34)cn2)CN(C2CCN(C(=O)C3CCC(c4ccc(Cl)cc4)CC3)CC2)C1 (stereo not shown) [Example 105, {1-(1-{[4-(4-chlorophenyl)cyclohexyl]carbonyl}piperidin-4-yl)-3-[4-(7H-pyrrolo[2,3-d]pyrimidin-4-yl)-1H-pyrazol-1-yl]azetidin-3-yl}acetonitrile]
IC50 Ratio JAK2/JAK1: 7.2

Cn1ccc(S(=O)(=O)N2CCC(N3CC(CC#N)(n4cc(-c5ncnc6[nH]ccc56)cn4)C3)CC2)n1 [Example 251, {1-{1-[(1-methyl-1H-pyrazol-3-yl)sulfonyl]piperidin-4-yl}-3-[4-(7H-pyrrolo[2,3-d]pyrimidin-4-yl)-1H-pyrazol-1-yl]azetidin-3-yl}acetonitrile]
IC50 Ratio JAK2/JAK1: 4.9

N#CCC1(n2cc(-c3ncnc4[nH]ccc34)cn2)CN(C2CCN(C(=O)c3ccnc(C(F)(F)F)c3)CC2)C1 [Example 57, (3-[4-(7H-pyrrolo[2,3-d]pyrimidin-4-yl)-1H-pyrazol-1-yl]-1-{1-[2-(trifluoromethyl)isonicotinoyl]piperidin-4-yl}azetidin-3-yl)acetonitrile]
IC50 Ratio JAK2/JAK1: 3.3
